In ChEMBL document CHEMBL5126616, “Therapeutic and Effective CURE-PRO Molecules for E3 Ligase-Mediated Targeted Protein Degradation” (ACS Med Chem Lett, 2022):

What was measured:
Type in all cases: protein assay
Parameters in all cases: concentration or dose not given beside the values
[1] = target: T1, Protein cereblon/Bromodomain-containing protein 4 (Homo sapiens) (UniProt O60885+Q96SW2); test: PROTAC activity at CRBN/BRD4 (unknown origin) assessed as BRD4 degradation in presence of N-((2-(2,6-dioxopiperidin-3-yl)-1,3-dioxoisoindolin-4-yl)methyl)-3,4- dihydroxy benzamide (CRB-N8046) by Western blot analysis
T1 sequence (Q96SW2 whole entry, looked up, other chains not shown): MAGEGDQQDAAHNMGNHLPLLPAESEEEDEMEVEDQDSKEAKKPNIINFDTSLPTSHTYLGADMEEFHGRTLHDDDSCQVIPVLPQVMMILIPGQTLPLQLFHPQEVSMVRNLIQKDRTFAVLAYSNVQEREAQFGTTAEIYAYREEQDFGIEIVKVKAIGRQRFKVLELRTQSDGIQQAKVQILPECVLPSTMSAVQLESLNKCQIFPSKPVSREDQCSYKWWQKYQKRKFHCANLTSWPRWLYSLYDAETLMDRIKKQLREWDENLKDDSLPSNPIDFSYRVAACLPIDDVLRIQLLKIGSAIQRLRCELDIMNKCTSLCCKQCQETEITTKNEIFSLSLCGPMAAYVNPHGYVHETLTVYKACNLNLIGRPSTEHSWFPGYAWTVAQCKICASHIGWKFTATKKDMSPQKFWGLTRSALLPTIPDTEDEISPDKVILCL

[2] = target: T1, Protein cereblon/Bromodomain-containing protein 4 (Homo sapiens); test: PROTAC activity at CRBN/BRD4 (unknown origin) assessed as BRD4 degradation in presence of (1S,4R,5R,6S)-N-((2-(2,6-dioxopiperidin-3-yl)-1,3-dioxoisoindolin-4-yl)methyl)-5,6- dihydroxy bicyclo[2.2.1]heptane-2-carboxamide (CRB-N8066) by Western blot analysis
[3] = target: T1, Protein cereblon/Bromodomain-containing protein 4 (Homo sapiens); test: PROTAC activity at CRBN/BRD4 (unknown origin) assessed as BRD4 degradation in presence of N-((2-(2,6-dioxopiperidin-3-yl)-1,3-dioxoisoindolin-4-yl)methyl)-2,3- dihydroxy benzamide (CRB-N8047) by Western blot analysis

Compound	Activity [1]	Activity [2]	Activity [3]
CCNC(=O)C[C@@H]1N=C(c2ccc(Cl)cc2)c2cc(OCCCCC(=O)Nc3cccc(B(O)O)c3)ccc2-n2c(C)nnc21	30%	30%	–
COc1ccc2c(c1)C(c1ccc(Cl)cc1)=N[C@@H](CC(=O)NCCCCCNC(=O)c1cccc(B(O)O)c1)c1nnc(C)n1-2	30%	30%	–
COc1ccc2c(c1)C(c1ccc(Cl)cc1)=N[C@@H](CC(=O)NCCc1ccc(B(O)O)cc1)c1nnc(C)n1-2	–	–	30%
COc1ccc2c(c1)C(c1ccc(Cl)cc1)=N[C@@H](CC(=O)NCCCCNC(=O)c1ccc(B(O)O)cc1)c1nnc(C)n1-2	–	30%	30%
COc1ccc2c(c1)C(c1ccc(Cl)cc1)=N[C@@H](CC(=O)NCCNC(=O)/C=C/c1cccc(B(O)O)c1)c1nnc(C)n1-2	–	30%	30%
COc1ccc2c(c1)C(c1ccc(Cl)cc1)=N[C@@H](CC(=O)NCCCNC(=O)c1cccc(B(O)O)c1)c1nnc(C)n1-2	30%	30%	30%
COc1ccc2c(c1)C(c1ccc(Cl)cc1)=N[C@@H](CC(=O)NCCCCCNC(=O)c1ccc(B(O)O)cc1)c1nnc(C)n1-2	–	30%	–
COc1ccc2c(c1)C(c1ccc(Cl)cc1)=N[C@@H](CC(=O)NCCNC(=O)/C=C/c1ccc(B(O)O)cc1)c1nnc(C)n1-2	30%	30%	30%
COc1ccc2c(c1)C(c1ccc(Cl)cc1)=N[C@@H](CC(=O)NCc1cccc(B(O)O)c1)c1nnc(C)n1-2	30%	–	30%
COc1ccc2c(c1)C(c1ccc(Cl)cc1)=N[C@@H](CC(=O)NCc1ccc(B(O)O)cc1)c1nnc(C)n1-2	–	–	30%
